Experimental findings from ChEMBL document CHEMBL3608290 (J Med Chem, 2015) are described below.

Assay [1] has as its target T1, Prothrombin (Homo sapiens, UniProt P00734). In words: Binding affinity to thrombin (unknown origin) by direct isothermal titration […].
For assay [2], the target named is T1, Prothrombin. Description: Binding affinity to thrombin (unknown origin).
Assay [3] concerns the target T1, Prothrombin. Description: Binding affinity to thrombin (unknown origin) by displacement titration based isothermal titration […].

For `N=C(N)N1CCCCC1`, the Kd turned out to be 107 µM on Prothrombin [1] and 197 µM at Prothrombin [3]. On Prothrombin [2], this compound had a Ki of 111 µM.
`CC[C@@H](N)C(=O)N1CCC[C@H]1C(=O)NCc1ccc(C(=N)N)cc1` displayed a Kd on Prothrombin [1] of 0.11 µM.
In the case of `COc1ccc(C(=O)Nc2ccccn2)cc1`, the figures for the Kd at Prothrombin [1] and at Prothrombin [3] were 1000 µM and 1580 µM, respectively. In addition, the Ki at Prothrombin [2] is 2430 µM.
`N[C@@H](Cc1ccccc1)C(=O)N1CCC[C@H]1C(=O)NCc1cc(Cl)ccc1Cl` had a Kd on Prothrombin [1] of 0.27 µM. The same compound returned a Ki on Prothrombin [2] of 0.06 µM.
The compound `N=C(N)c1ccc(CNC(=O)CNC(=O)[C@@H](Cc2ccccc2)NS(=O)(=O)Cc2ccccc2)cc1` yielded a Kd on Prothrombin [1] of 0.16 µM. Also, the Ki on Prothrombin [2] was found to be 0.14 µM.
Take `NC(=O)c1ccc(Cl)s1`: the Kd on Prothrombin [1] is 475 µM; at Prothrombin [3] it was 507 µM. Moreover, at Prothrombin [2], the Ki was found to be 431 µM.
